# Laboratory results published in patent US10758569B2, “Heteroaryl disulfide compounds as allosteric effectors for increasing the oxygen-binding affinity of hemoglobin” (The General Hospital Corporation, priority 2014, dated 2020).
# Tests used:
# [1] = molecular target: T1, hemoglobin (Homo sapiens, UniProt P68871+P69905); assay: Hemoglobin oxygen-binding assay (oxyHb %, plate format); type: biochemical; conditions: effector to hemoglobin tetramer 6 to 1 (mol/mol)
# T1 construct: from tissue; host or cells: outdated donated human red blood cells (hemolysate supernatant, dialysed against DPBS)
# Experimental: Test compounds (0.75 μL, 10 mM in DMSO) were added to the central area of two 384 deep well plates forming compound plates. DPBS was used as the solvent for myo-inositol hexaphosphate (IHP) and N-ethylmaleimide (NEM) (10 mM). To prevent oxidation of hemoglobin during the experiment, glucose-6-phosphate (0.4 mg/mL), glucose-6-phosphate dehydrogenase (1.0 U/mL), nicotinamide adenine dinucleotide phosphate (NADP, 0.05 mg/mL), ferredoxin (0.01 mg/mL), ferredoxin-NADP reductase (0.01 U/mL) and catalase (2×10^3 U/mL) were added to hemoglobin to produce the Hayashi reducing system, which is described in detail in Hayashi et al., Biochemica et Biophysica Acta, 1973, 310, 309-316. […]
# The alteration of hemoglobin's oxygen-binding affinity by the test compounds binding to hemoglobin was evaluated in an environment where the fractional oxygen pressure (FO2) could be precisely measured and controlled. […] To confirm the allosteric effect of the test compounds, ODC of hemoglobin was measured in the presence and absence of each compound. […]
# The ability of small molecules to alter the oxygen affinity of hemoglobin was determined by measuring the fraction of oxygenated hemoglobin (oxyHb %) and oxidized hemoglobin (metHb %) using spectrophotometry under three (high, medium, and low oxyHb saturation) conditions. […]
# [2] = tested on: red blood cells; assay: ODC of washed red blood cells in Hemox solution; type: cell-based, human; conditions: for P50 of red blood cells: mixed 1 h at 37° C.
# From the text: For the reduction of P50, less amount of 1 was needed, and the reaction time of 1 with hemoglobin was faster than NEM and 5HMF.
# [3] = tested on: whole blood; assay: ODC (P50) of whole blood; conditions: 6:1 molar ratio of compound to hemoglobin (120 μM)
# Experimental: The ODC of hemoglobin was measured with a HEMOX analyzer (TCS Scientific Corporation) at 37° C. For experiments with purified hemoglobin, hemoglobin (20 μM as tetramer) was dissolved in DPBS and antifoam (0.2 vol %, Catalog No. AFA-25, TCS Scientific Corporation) was added to prevent foaming of the sample. Compounds were prepared in DMSO stock solutions then added to hemoglobin. […] For experiments with RBCs, blood was drawn from volunteers into EDTA tubes. The blood was centrifuged for 15 min at 3,000 rpm at 4° C. The supernatant was discarded, and RBCs were washed three times with DPBS, pH 7.4 by dilution to 50% hematocrit.
# [4] = tested on: red blood cells from sickle cell disease patients (SRBCs); conditions: reported value; cited from earlier work
# T1 sequence (P68871 2-147 limits assumed): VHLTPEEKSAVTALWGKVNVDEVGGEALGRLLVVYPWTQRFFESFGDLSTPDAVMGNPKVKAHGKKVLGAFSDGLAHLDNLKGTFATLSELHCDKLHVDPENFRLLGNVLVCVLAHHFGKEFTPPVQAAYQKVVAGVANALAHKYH
# T1 sequence (P69905 2-142 limits assumed): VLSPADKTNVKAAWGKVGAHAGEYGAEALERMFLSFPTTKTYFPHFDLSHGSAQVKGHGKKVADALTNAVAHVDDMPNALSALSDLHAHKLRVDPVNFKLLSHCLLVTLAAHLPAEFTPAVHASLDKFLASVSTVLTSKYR
SMILES,change of oxyHb % [1],P50 of red blood cells ([2]; 400 μM),P50 of whole blood [3],P50 of red blood cells ([2]; 2 mM),"P50 of RBCs ([2]; Compound 1 at 120 μM (6:1 to Hb tetramer), HEMOX solution, 5 vol % DMSO, 10 min at 37° C.)",concentration required to reduce sickling of hypoxic SS RBCs by nearly 90% [4]
"O=P(O)(O)O[C@H]1[C@H](OP(=O)(O)O)[C@@H](OP(=O)(O)O)[C@H](OP(=O)(O)O)[C@@H](OP(=O)(O)O)[C@H]1OP(=O)(O)O [IHP, myo-inositol hexaphosphate]",decrease,,,,,
"CCN1C(=O)C=CC1=O [NEM, N-ethylmaleimide]",increase,8 Torr,20±1.1 Torr,,,
"O=Cc1ccc(CO)o1 [Compound 5-HMF, 5-(Hydroxymethyl)furfural]",,,26±0.5 Torr,9 Torr,27±0.5 Torr,5 mM
